In patent publication US20230078265A1, “METHODS AND COMPOSITIONS FOR EDITING NUCLEOTIDE SEQUENCES” (The Broad Institute, Inc., priority 2019, published 2023):

Key:
DNA = details: mutation relative to canonical SpCas9, SEQ ID NO: 18; cited from earlier work
[1] = system: 5′-Cy5-labeled dsDNA substrates; test: In vitro TPRT (prime editing) primer extension assay, denaturing urea PAGE; format: biochemical; details: standard gRNA (gRNA_0, lane 3), substrates not pre-nicked
Procedure: All reactions are with M-MLV RT.
Fluorescently labeled (Cy5) DNA targets were used as substrates, and were pre-nicked in this set of experiments. […] Then, the fluorescently labeled DNA substrate was added along with dNTPs and the RT enzyme. After 1 hour of incubation at 37° C., the reaction products were analyzed by denaturing urea-polyacrylamide gel electrophoresis (PAGE).
However, the DNA substrates are not pre-nicked in this set of experiments. […] The reaction products were analyzed by denaturing urea-polyacrylamide gel electrophoresis (PAGE).
Reactions were incubated at 37° C. for 1 hour, then analyzed by denaturing urea PAGE and visualized for Cy5 fluorescence.
Reactions were allowed to proceed at 37° C. for 1 hour prior to separation by denaturing urea PAGE and visualization by Cy5 fluorescence.

Question: Which “Function/Characteristic (as reported)” value (DNA) does the source give for “1099-1368 deletion: SpCas9 mutation relative to SEQ ID NO: 18” here?
Answer: No nuclease activity

Question: With “Cas9 nickase: Cas9 nickase (SpyCas9 H840A mutant)” as the substance, how does the “cleavage of the DNA strand by the nickase” value [1] read?
Answer: efficiently cleaves

Question: With “D10A: SpCas9 mutation relative to SEQ ID NO: 18” as the substance, how does the “Function/Characteristic (as reported)” value (DNA) read?
Answer: Nickase mutant which cleaves the protospacer

Question: For “H840A: SpCas9 mutation relative to SEQ ID NO: 18”, which “Function/Characteristic (as reported)” value (DNA) is on record?
Answer: Nickase mutant which cleaves the non-protospacer
